Source: patent publication US12410143B2, “Therapeutic inhibitors of the reverse mode of ATP synthase” (priority 2017, dated 2025)
“Also recorded” adds a separate entry of the source. Like-named read-outs stand apart in the source and are kept apart here.

Assays:
[1] = tested on: xenograft mouse models of cancer; settings: data in [16]; cited from earlier work
F1F0 ATP hydrolase [2] = target: T1, F1F0 ATP hydrolase (Bos taurus, UniProt P00829+P19483); settings: cited from earlier work
T1 construct: in NADH-linked and NADPH-linked sub-mitochondrial (SMP) assays respectively; host or cells: sub-mitochondrial particles (SMPs)

NCI-60 cancer cell lines [3] = test: NCI-60 one-dose in vitro assay; assay type: cell-based, human
From the text: FIGS. 1, 2, 3, 4, 5, 6 show results from the NCI-60 one-dose in vitro assay at the Developmental Therapeutics Program (DTP), at the National Cancer Institute (NCI, Bethesda, MD, USA). Its protocol is well known to those of the art, and it tests the effect, if any, of a test compound on the growth/survivability of a cancer cell line as compared to the no compound control. […] However, a constant is that this 59 always has representative cell lines from leukemia, melanoma and cancers of the lung, colon, brain, ovary, breast, prostate and kidney. In a one-dose NCI compound test report, NCI report a number for each cell line, which they call “Growth Percent”, which is its growth relative to the no-compound control, and relative to the time zero number of cells. This reported parameter allows detection of both growth inhibition (values between 0 and 100) and lethality (values less than 0). For example, an NCI “Growth Percent” value of 100 means no growth inhibition. Value of 40 means 60% growth inhibition. Value of 0 means no net growth over the course of the experiment. Value of −40 means 60% lethality. Value of −100 means all cells are dead. I don't present NCI one-dose data in this original format. Instead, if the NCI “Growth Percent” value for a cell is positive, it is manipulated: [100 minus this original NCI-60 “Growth Percent” data point], to yield the percentage “Growth Inhibition”. If the original NCI “Growth Percent” value for a cell is negative, it is made positive to be the percentage of original cancer cells (at time zero) killed: “Percentage Killed” {and in these cases, of course, all growth has been inhibited, so percentage “Growth Inhibition” is then specified to be 100% for this cancer cell line}. In my one-dose figures, “Growth Inhibition” (0-100%) is presented on the x-axis and, if applicable, “Percentage Killed” (0-100%) further along on the x-axis. The latter is applicable when there is not just cancer growth inhibition but a reduction in the number of cancer cells from the start time i.e. when the compound is not merely slowing cancer growth, but is actively reducing the number of cancer cells from the starting number. In cases where there is only growth inhibition, only “Growth inhibition” is presented on the x-axis.

F1F0 ATP hydrolase [4] = target: T1, F1F0 ATP hydrolase; test: NADH-linked sub-mitochondrial (SMP) assay of F1F0 ATP hydrolysis; assay type: biochemical, bovine; settings: NADH-linked and NADPH-linked SMP assays [5-6]
From the text: For example, by separately assaying (in space and/or time) the compounds's effect upon ATP synthesis and ATP hydrolysis by ATP synthase (in its entirety or, less preferably, a component part of it). Then comparing these assay results. The greater the inhibition of reverse vs. forward mode, the more preferred this compound is for anti-cancer use. A further method is by screening/seeking compounds that inhibit ATP hydrolysis more than synthesis in submitochondrial particles (SMPs). ATP hydrolysis can be assayed by (non-limiting example) a spectroscopic assay for NADH fluorescence that incubates the SMPs with pyruvate kinase and lactate dehydrogenase enzymes (assay well-known to those of the art). ATP synthesis can be assayed by (non-limiting example) a spectroscopic assay for NADPH fluorescence that incubates the SMPs with hexokinase and glucose-6-phosphate dehydrogenase enzymes (assay well-known to those of the art). These assays are reported in any one of [5, 7, 8, 11, 12, 13, 36], and/or as referenced therein, all of which are herein incorporated in their entirety.
Compounds from, selected as specific anti-cancer therapeutics by the invention of this disclosure, selected because they inhibit the reverse, more than the forward, mode of ATP synthase. EC50 and IC50 used interchangeably. […]

[5] = rats, cited from earlier work
F1F0-ATP hydrolysis = target: T2, F1F0-ATP hydrolysis (Homo sapiens, UniProt P06576+P25705); settings: cited from earlier work
T2 construct: BTB06584 potency information (isn't an EC50) is from a whole cell study [13]

mouse cortical neurons = settings: 100 μM [13]; cited from earlier work
F1F0-ATP synthesis = target: T3, F1F0-ATP synthesis (Homo sapiens, UniProt P06576+P25705); settings: [13]; cited from earlier work
T3 construct: BTB06584 potency information (isn't an EC50) is from a whole cell study [13]

[6] = cited from earlier work
[7] = tested on: HL-1 cardiac muscle cell line; settings: 3 μM; HL-1 cells; data from [12]; cited from earlier work
ex vivo rat heart = settings: 10 μM [11]; cited from earlier work
NCI-60 cancer cell lines [8] = test: NCI-60 five-dose in vitro assay; assay type: cell-based, human; settings: mean of all 59 cell lines
From the text: The compounds of this invention act by a distinctly different mechanism, upon cancer cells, than oligomycin. […] The degree of (dis)similarity can be measured using the COMPARE algorithm, which employs a Pearson correlation coefficient. […] This mechanistic distinction is vital because polyketide F1F0 ATP synthase inhibitors are poisonous to normal cells, which means they fail in cancer xenograft mouse experiments and are without clinical utility.
Results from the NCI-60 five-dose in vitro assay at the Developmental Therapeutics Program (DTP), at the National Cancer Institute (NCI, Bethesda, MD, USA). In this assay, which is well known to those of the art, a compound is tested, in vitro, against 59 different cancer cell lines, sourced from 9 different tissue types, across 5 different concentrations. On the y-axis is the aforementioned “Growth Percentage” parameter used by NCI, which is growth relative to the no-compound control, and relative to the time zero number of cells. This parameter allows detection of both growth inhibition (values between 0 and 100) and lethality (values less than 0). […] Each cancer cell line has a GI50 value and the “mean GI50” of all 59 cell lines can be calculated.

[9] = Formula (I) examples, SMP data from [5], read-out: EC50 F1F0 ATP hydrolase

SMILES: CC[C@H](O)C[C@@H]1O[C@]2(CC[C@H]1C)C[C@@H]1OC(=O)/C=C/[C@](C)(O)[C@@H](O)[C@H](C)[C@@H](O)[C@@H](O[C@H]3C[C@@H](OC)[C@@H](O)[C@@H](C)O3)[C@H](O)[C@](C)(O)CCC/C=C\[C@H]3C[C@H](C)CO[C@@]3(O)C[C@H](O2)[C@H]1C [cytovaricin]
- efficacy in xenograft mouse models of cancer [1]: don't work

SMILES: CC(=O)Nc1ccc(S(=O)(=O)N2Cc3ccccc3N(Cc3cnc[nH]3)C(CCc3ccccc3)C2)cc1 (centres unmarked) [4-(AcNH)—Ph/SO2/5-yl]
- EC50 (F1F0 ATP hydrolase [2]; Formula (II) examples, SMP data from [8], read-out: EC50F1F0ATP hydrolase): 2980 nM

SMILES: N#Cc1cccc(C(=O)/N=C(\Nc2ccc(Cl)cc2)N[C@@H](Cn2ccnc2)c2ccc(Cl)cc2Cl)c1 [6a]
- anti-cancer activity (NCI one-dose assay) (NCI-60 cancer cell lines [3]; 10 μM): exerted anti-cancer activity
- inhibits F1F0-ATP hydrolysis (F1F0 ATP hydrolase [2]; stereoisomers of 19a [5-6]): not

SMILES: CCC(=O)N=C(Nc1ccc(Cl)cc1)NC(Cn1ccnc1)c1ccc(Cl)cc1Cl (centres unmarked) [4-Cl/C(═O)Et]
- EC50 (F1F0 ATP hydrolase [2]; [9]): 2270 nM

SMILES: N#Cc1cccc(C(=O)/N=C(\Nc2ccc(Cl)cc2)NC(Cn2ccnc2)c2ccc(Cl)cc2Cl)c1 (centres unmarked) [19a]
- anti-cancer activity (NCI one-dose assay) (NCI-60 cancer cell lines [3]; 10 μM): more anti-cancer activity than BMS-199264

SMILES: CC[C@@H](O)C[C@H]1CCC[C@@]2(C[C@@H]3OC(=O)/C=C/[C@@](C)(O)[C@@H](O)[C@H](C)[C@@H](O)[C@H](O[C@H]4CC[C@H](N(C)C)[C@H](C)O4)[C@@H](O)[C@](C)(O)CCCCC/C=C/[C@@H]4CC(C)(C)O[C@@]4(O)C[C@H](O2)[C@H]3C)O1 [ossamycin]
- efficacy in xenograft mouse models of cancer [1]: don't work

SMILES: N#Cc1cccc(C(=O)/N=C(\Nc2ccc(Cl)cc2)N[C@H](Cn2ccnc2)c2ccc(Cl)cc2Cl)c1
- [EC50 F1F0 ATP synthesis/EC50 F1F0 ATP hydrolysis] ratio (F1F0 ATP hydrolase [4]): > 5,556
- EC50 (F1F0 ATP hydrolase [2]; Best Mode structure, SMP assay [5-6], read-out: EC50 against F1F0ATP hydrolysis): 18 nM
- Cmax [5]: 21 µM
- volume of distribution [5]: 2.37 L/kg
- half-life in blood ([5]; intravenously applied drug): 2.1 h
- orally bioavailable ([5]; polyethyleneglycol:water:ethanol, 1:1:1): 47%

SMILES: O=C(Oc1cc(S(=O)(=O)c2ccccc2)ccc1[N+](=O)O)c1ccc(Cl)cc1 [BTB06584]
- anti-cancer activity (NCI one-dose assay) (NCI-60 cancer cell lines [3]; 10 μM): No anti-cancer activity and none
- anti-cancer activity (NCI one-dose assay) (NCI-60 cancer cell lines [3]; 100 μM): exerts anti-cancer activity
- inhibitory potency for F1F0-ATP hydrolysis (F1F0-ATP hydrolysis; 10 μM [13]): none
- concentration required for inhibiting F1F0-ATP hydrolysis (F1F0-ATP hydrolysis; whole cell study [13]): ≥ 100 µM
- harm to normal cells (mouse cortical neurons) (mouse cortical neurons): isn't harmful to normal cells
- inhibition of F1F0-ATP synthesis (F1F0-ATP synthesis): not inhibiting F1F0-ATP synthesis

SMILES: CC[C@H]1/C=C/C=C/C[C@@H](C)[C@H](O)[C@@](C)(O)C(=O)[C@@H](C)[C@H](O)[C@@H](C)C(=O)[C@@H](C)[C@H](O)[C@@H](C)/C=C/C(=O)O[C@@H]2[C@H](C)[C@H](CC1)O[C@]1(CC[C@H](C)[C@H](C[C@@H](C)O)O1)[C@H]2C [oligomycin]
- inhibition of F1F0 ATP hydrolysis versus F1F0 ATP synthesis (F1F0 ATP hydrolase [2]; SMP assays [11]): inhibits F1F0 ATP hydrolysis less than F1F0 ATP synthesis
- time within which healthy rats are killed ([6]; 1 mg/kg, n=10): ≤ 48 h
- LD33 ([6]; rats): 0.5 mg/kg

SMILES: CC[C@H]1/C=C/C=C/C[C@@H](C)[C@H](O)[C@@](C)(O)C(=O)[C@@H](C)[C@H](O)[C@@H](C)C(=O)[C@@H](C)[C@H](O)[C@@H](C)/C=C/C(=O)O[C@@H]2[C@H](C)[C@H](CC1)O[C@@]1(O[C@@H](C[C@@H](C)O)[C@@H](C)CC1=O)[C@H]2C [Oligomycin B]
- O2 consumption change [7]: −40%

SMILES: CC1(C)Oc2ccc(S(=O)(=O)N3CCCCC3)cc2[C@@H](N(Cc2ncc[nH]2)c2ccc(Cl)cc2)[C@@H]1O [BMS-199264]
- anti-cancer activity (NCI one-dose assay) (NCI-60 cancer cell lines [3]; 10 μM): exerts anti-cancer activity
- harm to normal cells (ex vivo rat heart) (ex vivo rat heart): does not harm ex vivo rat heart; also recorded: doesn't harm normal cells

SMILES: N#CN=C(Nc1cccc(Cl)c1)NC(Cn1ccnc1)c1ccc(Cl)cc1Cl (centres unmarked) [3-CL/CN]
- EC50 (F1F0 ATP hydrolase [2]; [9]): 9170 nM

SMILES: N#CN=C(Nc1cccc(Cl)c1Cl)NC(Cn1ccnc1)c1ccc(Cl)cc1Cl (centres unmarked) [2,3-Cl2/CN]
- EC50 (F1F0 ATP hydrolase [2]; [9]): 2490 nM

SMILES: N#CN=C(Nc1ccc(Cl)cc1)NC(Cn1ccnc1)c1ccc(Cl)cc1Cl (centres unmarked) [4-Cl/CN]
- EC50 (F1F0 ATP hydrolase [2]; [9]): 8800 nM

SMILES: N#Cc1ccc(C(=O)N=C(Nc2ccc(Cl)cc2)NC(Cn2ccnc2)c2ccc(Cl)cc2Cl)cc1 (centres unmarked) [4-Cl/C(═O)4-CN—Ph]
- EC50 (F1F0 ATP hydrolase [2]; [9]): 280 nM

SMILES: CC1(C)Oc2ccc(S(=O)(=O)N3CCCCC3)cc2[C@@H](N(Cc2ncc[nH]2)c2ccc(Cl)cc2)[C@@H]1O.Cl [BMS-199264 hydrochloride]
- anti-cancer activity (NCI one-dose assay) (NCI-60 cancer cell lines [3]; 10 μM): Anti-cancer activity
- anti-cancer activity (NCI one-dose assay) (NCI-60 cancer cell lines [3]; 100 μM): Anti-cancer activity
- GI50 (NCI-60 cancer cell lines [8]): 3900 nM
